Laboratory results published in publication PMC8197275, “Novel Tdp1 Inhibitors Based on Adamantane Connected with Monoterpene Moieties via Heterocyclic Fragments” (Molecules, 2021).

How the values were obtained:
[1] = Cytotoxicity, EZ4U Cell Proliferation and Cytotoxicity Assay, HeLa; assay type: cell-based; conditions: human, HeLa cells, cervical cancer HeLa
Protocol: (§1) The cytotoxicity of compounds was investigated using HeLa (cervical cancer), SW837 and HCT-116 (colon cancers) cell lines, and the results are shown in Table 1 and Figure S2 in the Supplementary Materials. […] In general, the HeLa cell line was less sensitive to the inhibitors than the HCT-116 and SW837 cells.
(§2) The human cervical cancer HeLa cells were grown in Iscove’s modified Dulbecco’s medium (IMDM) with 40 μg/mL gentamicin, 50 IU/mL penicillin, 50 μg/mL streptomycin (MP Biomedicals), and 10% of fetal bovine serum (Biolot) in a 5% CO2 atmosphere. Human colon adenocarcinoma HCT-116, rectum adenocarcinoma SW837, and human embryo kidney HEK293A cell lines were cultured in DMEM medium (Invitrogen) supplemented with 10% fetal bovine serum (FBS) (Invitrogen), penicillin (100 units/mL), and streptomycin (100 μg/mL), at 37 °C, 5% CO2 in a humid atmosphere. After the formation of a 30–50% monolayer, the tested compounds were added to the medium. The volume of the added reagents was 1/100 of the total volume of the culture medium, and the amount of DMSO was 1% of the final volume. Control cells were grown in the presence of 1% DMSO. The cell culture was monitored for 3 days.
(§3) The cytotoxicity of the compounds to HeLa and HEK293A cell lines was examined using the EZ4U Cell Proliferation and Cytotoxicity Assay (Biomedica, Austria), according to the manufacturer’s protocols.

[2] = Cytotoxicity, MTT test, HCT-116; assay type: cell-based; conditions: human, HCT-116 cells; colorectal HCT-116, 72 h MTT
Protocol: as §1, §2
(§4) The medium was removed, and the dark blue crystals of formazan were dissolved in 100 μL of isopropanol. The absorbance at 570 nm (peak) and 620 nm (baseline) was determined using a microplate reader Multiscan FC (Thermo Fisher Scientific Corporation). All concentrations were performed in triplicate. The values are given as mean ± standard deviation (S.D.) values, and all measurements were repeated three times.

[3] = Cytotoxicity, MTT test, SW837; assay type: cell-based; conditions: human, SW837 cells; colorectal SW837, 72 h MTT
Protocol: as §1, §2, §4

HEK293A cells = experiment: Cytotoxicity on noncancerous cell line HEK293A (EZ4U); assay type: cell-based, human; conditions: concentrations up to 30 μM; data not shown
Protocol: as §1, §2, §3

HeLa cells = experiment: Sensitizing of HeLa cells to topotecan by Tdp1 inhibitors; assay type: cell-based, human; conditions: for combination index (CI) with topotecan: HeLa, different concentrations of topotecan, CompuSyn; for HeLa CC50 of topotecan with Tdp1 inhibitor: human, 3 days, 5 µM
Protocol: (§5) The potential for sensitizing the cancer cell lines to topotecan using the Tdp1 inhibitors was investigated using the MTT assay. Neutralizing the enzymatic activity of Tdp1 by blocking access to its catalytic site using a small molecule should sensitize the cytotoxic potential of topotecan, since the complex of Top1 with DNA cannot be unraveled. […] Nontoxic concentrations of the adamantane derivatives (5 μM) were used for the HeLa cell line; the dose response for topotecan was measured and the corresponding CC50 values were derived, and the results are shown in Figure 4 for 20c and in Table 2 for all the derivatives.
(§6) For HeLa cells, increased cytotoxicity was seen when the adamantanes and topotecan were combined. […] The combination index (CI) for different concentrations of topotecan and 20c at 5 μM was in the range 0.49–0.82, and at 10 μM of 20c, it was 0.23–0.78. This indicates a synergistic effect of topotecan and 20c. The CI values were calculated with the CompuSyn version 1.0 software. For the HCT-116 cells, the synergistic effects of the compounds were different than for the HeLa cells. […] The CI plot at a different fraction affected (Fa) was determined for topotecan (5, 15, 150, 500 and 1500 nM) and 20g (1, 3, 10, 20 μM). The CI values for most of the combinations correspond to a synergistic effect (CI < 1, see Figure S3 in the Supplementary Materials).
as §2, §3

HCT-116 cells = experiment: Sensitizing of HCT-116 cells to topotecan by Tdp1 inhibitors; assay type: cell-based, human; conditions: for HCT116 CC50 of topotecan with Tdp1 inhibitor: human, 72 h
Protocol: as §5, §6, §2, §4

Tdp1 = Tdp1 (Homo sapiens, UniProt Q9NUW8); experiment: Tdp1 cleavage activity, fluorophore quencher-coupled DNA-biosensor, real-time; assay type: biochemical; parameters: inferred from the pET 16B vector and Ni-chelating resin purification; made in house; conditions: recombinant Tdp1 1.5 nM, 50 nM biosensor; read-out: IC50 (Tdp1 activity inhibition at 50%)
Sequence of Tdp1 (Q9NUW8 whole entry): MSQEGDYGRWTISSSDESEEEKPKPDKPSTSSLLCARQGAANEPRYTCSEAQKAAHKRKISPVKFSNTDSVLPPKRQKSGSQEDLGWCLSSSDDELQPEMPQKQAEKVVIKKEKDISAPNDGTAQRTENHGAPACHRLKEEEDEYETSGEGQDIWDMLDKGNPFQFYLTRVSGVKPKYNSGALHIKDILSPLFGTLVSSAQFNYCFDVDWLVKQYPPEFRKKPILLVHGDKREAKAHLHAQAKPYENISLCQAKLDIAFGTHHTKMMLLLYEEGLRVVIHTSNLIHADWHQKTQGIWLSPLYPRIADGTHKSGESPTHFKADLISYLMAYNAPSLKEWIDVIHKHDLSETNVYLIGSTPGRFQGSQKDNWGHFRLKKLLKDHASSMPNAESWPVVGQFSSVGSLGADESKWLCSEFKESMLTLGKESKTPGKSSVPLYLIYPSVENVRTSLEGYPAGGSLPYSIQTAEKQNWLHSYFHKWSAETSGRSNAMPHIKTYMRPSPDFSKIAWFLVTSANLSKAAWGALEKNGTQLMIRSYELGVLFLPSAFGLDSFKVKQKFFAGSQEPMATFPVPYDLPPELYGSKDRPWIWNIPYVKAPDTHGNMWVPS
Protocol: The recombinant Tdp1 was purified to homogeneity by chromatography on Ni-chelating resin and phosphocellulose P11 as described, using plasmid pET 16B-Tdp1, kindly provided by Dr. K.W. Caldecott (University of Sussex, United Kingdom). Tdp1 activity was detected as described in the work. Briefly, we measured the fluorescence intensity after quencher removal from a fluorophore quencher–coupled DNA oligonucleotide catalyzed by Tdp1. The reaction was carried out at different concentrations of inhibitors. The control samples contained 1% DMSO. The reaction mixtures contained Tdp1 buffer (50 mM Tris-HCl pH 8.0, 50 mM NaCl, and 7 mM β-mercaptoethanol), 50 nM biosensor, and an inhibitor being tested. The reaction was started by the addition of purified Tdp1 (1.5 nM). The biosensor (5′-[FAM] AAC GTC AGGGTC TTC C [BHQ]-3′) was synthesized in the Laboratory of Biomedical Chemistry at the Institute of Chemical Biology and Fundamental Medicine (Novosibirsk, Russia).
The reactions were incubated on a POLARstar OPTIMA fluorimeter (BMG LAB-TECH, GmbH) to measure fluorescence every 55 s (ex. 485 nm/em. 520 nm) during the linear phase (here, data are from minute 0 to minute 8). The values of IC50 were determined using a six-point concentration response curve in a minimum of three independent experiments, and were calculated using MARS Data Analysis 2.0 (BMG LABTECH).

[4] = Solubility remark during biological testing; assay type: physicochemical; conditions: remark in words

IC50 (Tdp1) [nM]	solubility [4]	melting point [°C]	Structure (SMILES)	CC50 at 3 days [1] [µM]	CC50 at 72 h [2] [µM]	CC50 at 72 h [3] [µM]	effect on cell viability, HEK293A (HEK293A cells)	potentiation of the cytotoxic potency of topotecan (HeLa cells) [×]	combination index (CI) with topotecan (HeLa cells; inhibitor at 5 μM)	combination index (CI) with topotecan (HeLa cells; inhibitor at 10 μM)	HeLa CC50 of topotecan with Tdp1 inhibitor (HeLa cells) [µM]	HCT116 CC50 of topotecan with Tdp1 inhibitor (HCT-116 cells; 15 µM)	combination index (CI) with topotecan (HCT-116 cells; HCT-116, topotecan 5-1500 nM, inhibitor 1, 3, 10, 20 μM, most of the combinations)	HCT116 CC50 of topotecan with Tdp1 inhibitor (HCT-116 cells; 20 µM)
5300 ± 1700	–	–	CC(C)=CCC/C(C)=C/CSc1n[nH]c(C23CC4CC(CC(C4)C2)C3)n1 [20c, 5-(Adamantan-1-yl)-3-(((E)-3,7-dimethylocta-2,6-dien-1-yl)thio)-1H-1,2,4-triazole]	64 ± 6	16 ± 7	41 ± 6	no effect on cell viability	3	0.49–0.82	0.23–0.78	1.9	460.0 (15) nM	–	–
–	poor solubility	265.6	C=C(C)[C@@H]1CC=C(C(=O)Nc2nnc(C34CC5CC(CC(C5)C3)C4)s2)CC1 [25d, (S)-N-(5-(adamantan-1-yl)-1,3,4-thiadiazol-2-yl)-4-(prop-1-en-2-yl)cyclohex-1-ene-1-carboxamide]	–	–	–	–	–	–	–	–	–	–	–
570 ± 140	–	–	CC1(C)[C@H]2CC=C(CCSc3n[nH]c(C45CC6CC(CC(C6)C4)C5)n3)[C@@H]1C2 [20g, 5-(Adamantan-1-yl)-3-((2-((1R,5S)-6,6-dimethylbicyclo[3.1.1]hept-2-en-2-yl)ethyl)thio)-1H-1,2,4-triazole]	74 ± 17	34 ± 6	40 ± 4	no effect on cell viability	–	–	–	2.6	–	< 1	235.8 (20) nM
2590 ± 480	poor solubility	–	CC(C)=CCCC(C)CC(=O)Nc1nnc(C23CC4CC(CC(C4)C2)C3)s1 (centres unmarked) [25b, N-(5-(Adamantan-1-yl)-1,3,4-thiadiazol-2-yl)-3,7-dimethyloct-6-enamide]	> 100	66 ± 6	83 ± 8	–	–	–	–	2.9	–	–	611.9 (20) nM
> 15000	–	97.9	CC(C)CCCC(C)CC(=O)NC12CC3CC(CC(C3)C1)C2 (centres unmarked) [26a, N-(Adamantan-1-yl)-3,7-dimethyloctanamide]	–	–	–	–	–	–	–	–	–	–	–
